Measured values published in patent US10988478B1, “Pyrazolo[1,5a]pyrimidine derivatives as IRAK4 modulators” (Genentech, Inc., priority 2015, dated 2021).

target: human IRAK4 (Homo sapiens (Human), UniProt Q9NWZ3); test: IRAK4 kinase inhibition, Transcreener fluorescence polarization ADP assay; assay type: biochemical; settings: recombinant full-length His6-IRAK4; 125 uM ATP; 90 min; Ki computed using ATP Km 642 uM
Experimental: Compounds were assayed for inhibition of human IRAK4 and IRAK1 catalytic activity using recombinant enzyme produced from insect cells. Full-length IRAK4 protein, carrying an N-terminal His6-Tag, was obtained from Life Technologies (Carlsbad, Calif., USA). The IRAK1 construct was produced internally and was comprised of IRAK1 residues Arg194 to Ser712, preceded by an NH2-terminal His6 tag and the coding sequence for glutathione-S-transferase.

Chain of human IRAK4 (Q9NWZ3 whole entry, the tested form may be a part): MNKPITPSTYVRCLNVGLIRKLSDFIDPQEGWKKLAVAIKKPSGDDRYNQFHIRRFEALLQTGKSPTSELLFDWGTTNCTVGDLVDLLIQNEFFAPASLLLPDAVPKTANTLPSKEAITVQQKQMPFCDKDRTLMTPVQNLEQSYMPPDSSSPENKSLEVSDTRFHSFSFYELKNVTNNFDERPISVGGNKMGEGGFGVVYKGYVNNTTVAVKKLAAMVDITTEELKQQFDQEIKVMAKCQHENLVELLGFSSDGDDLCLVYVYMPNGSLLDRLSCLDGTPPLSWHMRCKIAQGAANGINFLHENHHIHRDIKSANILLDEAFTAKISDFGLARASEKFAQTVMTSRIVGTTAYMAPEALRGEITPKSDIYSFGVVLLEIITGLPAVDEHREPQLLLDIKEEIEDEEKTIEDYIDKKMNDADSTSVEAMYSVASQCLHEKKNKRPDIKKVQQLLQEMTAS

| Ki [nM] | SMILES |
| --- | --- |
| 22 | CNC(=O)[C@@]1(C)Cc2cc(NC(=O)c3cnn4cccnc34)c(N3CCOCC3)cc2O1 [Example 49, (R)—N-(2-Methyl-2-(methylcarbamoyl)-6-morpholino-2,3-dihydrobenzofuran-5-yl)pyrazolo[1,5-a]pyrimidine-3-carboxamide] |
| 6.2 | C[C@]1(C(F)F)Cc2cc(NC(=O)c3cnn4cccnc34)c(N3CCOCC3)cc2O1 [Example 50, (R)—N-(2-(Difluoromethyl)-2-methyl-6-morpholino-2,3-dihydrobenzofuran-5-yl)pyrazolo[1,5-a]pyrimidine-3-carboxamide] |
| 9.6 | C[C@@]1(C(F)F)Cc2cc(NC(=O)c3cnn4cccnc34)c(N3CCOCC3)cc2O1 [Example 51, (S)—N-(2-(Difluoromethyl)-2-methyl-6-morpholino-2,3-dihydrobenzofuran-5-yl)pyrazolo[1,5-a]pyrimidine-3-carboxamide] |
| 3.8 | Cc1cnc2c(C(=O)Nc3cc4c(cc3N3CCC(C(C)(C)O)CC3)O[C@@](C)(CO)C4)cnn2c1 [Example 52, (R)—N-(2-(Hydroxymethyl)-6-(4-(2-hydroxypropan-2-yl)piperidin-1-yl)-2-methyl-2,3-dihydrobenzofuran-5-yl)-6-methylpyrazolo[1,5-a]pyrimidine-3-carboxamide] |
| 2.7 | Cc1cnc2c(C(=O)Nc3cc4c(cc3N3CCC(C(C)(C)O)CC3)O[C@](C)(CO)C4)cnn2c1 [Example 53, (S)—N-(2-(Hydroxymethyl)-6-(4-(2-hydroxypropan-2-yl)piperidin-1-yl)-2-methyl-2,3-dihydrobenzofuran-5-yl)-6-methylpyrazolo[1,5-a]pyrimidine-3-carboxamide] |
| 16 | C[C@]1(CO)Cc2cc(NC(=O)c3cnn4cc(F)cnc34)c(N3CCOCC3)cc2O1 [Example 54, (R)-6-Fluoro-N-(2-(hydroxymethyl)-2-methyl-6-morpholino-2,3-dihydrobenzofuran-5-yl)pyrazolo[1,5-a]pyrimidine-3-carboxamide] |
| 34 | C[C@@]1(CO)Cc2cc(NC(=O)c3cnn4cc(F)cnc34)c(N3CCOCC3)cc2O1 [Example 55, (S)-6-Fluoro-N-(2-(hydroxymethyl)-2-methyl-6-morpholino-2,3-dihydrobenzofuran-5-yl)pyrazolo[1,5-a]pyrimidine-3-carboxamide] |
| 21 | C[C@@]1(CO)Cc2cc(NC(=O)c3cnn4cccnc34)c(N3CC[C@H](F)C3)cc2O1 [Example 56, N-[(2S)-6-[(3S)-3-Fluoropyrrolidin-1-yl]-2-(hydroxymethyl)-2-methyl-3H-benzofuran-5-yl]pyrazolo[1,5-a]pyrimidine-3-carboxamide] |
| 60 | C[C@]1(CO)Cc2cc(NC(=O)c3cnn4cccnc34)c(N3CC[C@H](F)C3)cc2O1 [Example 57, N-[(2R)-6-[(3S)-3-Fluoropyrrolidin-1-yl]-2-(hydroxymethyl)-2-methyl-3H-benzofuran-5-yl]pyrazolo[1,5-a]pyrimidine-3-carboxamide] |
| 36 | C[C@]1(CO)Cc2cc(NC(=O)c3cnn4cccnc34)c(N3CC[C@@H](F)C3)cc2O1 [Example 58, N-[(2R)-6-[(3R)-3-Fluoropyrrolidin-1-yl]-2-(hydroxymethyl)-2-methyl-3H-benzofuran-5-yl]pyrazolo[1,5-a]pyrimidine-3-carboxamide] |
| 9.6 | C[C@@]1(CO)Cc2cc(NC(=O)c3cnn4cccnc34)c(N3CC[C@@H](F)C3)cc2O1 [Example 59, N-[(2S)-6-[(3R)-3-Fluoropyrrolidin-1-yl]-2-(hydroxymethyl)-2-methyl-3H-benzofuran-5-yl]pyrazolo[1,5-a]pyrimidine-3-carboxamide] |
| 6.6 | CC1(C)Cc2cc(NC(=O)c3cnn4cccnc34)c(N3CCN(CCO)CC3)cc2O1 [Example 60, N-[6-[4-(2-Hydroxyethyl)piperazin-1-yl]-2,2-dimethyl-3H-benzofuran-5-yl]pyrazolo[1,5-a]pyrimidine-3-carboxamide] |
| 35 | CC1(C)Cc2cc(NC(=O)c3cnn4cc(C5CC5)cnc34)c(N3CCOCC3)cc2O1 [Example 61, 6-Cyclopropyl-N-(2,2-dimethyl-6-morpholino-3H-benzofuran-5-yl)pyrazolo[1,5-a]pyrimidine-3-carboxamide] |
| 260 | CC1(C)Cc2cc(NC(=O)c3cnn4cccnc34)c(C3CCNCC3)cc2O1 [Example 62, N-[2,2-Dimethyl-6-(4-piperidyl)-3H-benzofuran-5-yl]pyrazolo[1,5-a]pyrimidine-3-carboxamide] |
| 390 | CN1CCC(c2cc3c(cc2NC(=O)c2cnn4cccnc24)CC(C)(C)O3)CC1 [Example 63, N-[2,2-Dimethyl-6-(1-methyl-4-piperidyl)-3H-benzofuran-5-yl]pyrazolo[1,5-a]pyrimidine-3-carboxamide] |
| 8.7 | CC1(C)Cc2cc(NC(=O)c3cnn4cccnc34)c(O[C@H]3CC[C@@H](O)CC3)cc2O1 [Example 64, Cis-N-[6-(4-hydroxycyclohexoxy)-2,2-dimethyl-3H-benzofuran-5-yl]pyrazolo[1,5-a]pyrimidine-3-carboxamide] |
| 9.2 | CC1(C)Cc2cc(NC(=O)c3cnn4cccnc34)c(O[C@H]3CC[C@H](O)CC3)cc2O1 [Example 65, Trans-N-[6-(4-hydroxycyclohexoxy)-2,2-dimethyl-3H-benzofuran-5-yl]pyrazolo[1,5-a]pyrimidine-3-carboxamide] |
| 24 | C[C@]1(CO)Cc2cc(NC(=O)c3cnn4cccnc34)c(N3CCC(F)(F)C3)cc2O1 [Example 66, N-[(2R)-6-(3,3-Difluoropyrrolidin-1-yl)-2-(hydroxymethyl)-2-methyl-3H-benzofuran-5-yl]pyrazolo[1,5-a]pyrimidine-3-carboxamide] |
| 4.4 | C[C@@]1(CO)Cc2cc(NC(=O)c3cnn4cccnc34)c(N3CCC(F)(F)C3)cc2O1 [Example 67, N-[(2S)-6-(3,3-Difluoropyrrolidin-1-yl)-2-(hydroxymethyl)-2-methyl-3H-benzofuran-5-yl]pyrazolo[1,5-a]pyrimidine-3-carboxamide] |
| 9.8 | CC1(C)Cc2cc(NC(=O)c3cnn4cccnc34)c(N3CC(O)C(F)(F)C3)cc2O1 (stereo not drawn) [Example 68, N-(6-(3,3-Difluoro-4-hydroxypyrrolidin-1-yl)-2,2-dimethyl-2,3-dihydrobenzofuran-5-yl)pyrazolo[1,5-a]pyrimidine-3-carboxamide] |
| 27 | CC1(C)Cc2cc(NC(=O)c3cnn4cc(C(F)(F)F)cnc34)c(N3CCOCC3)cc2O1 [Example 69, N-(2,2-Dimethyl-6-morpholino-2,3-dihydrobenzofuran-5-yl)-6-(trifluoromethyl)pyrazolo[1,5-a]pyrimidine-3-carboxamide] |
| 28 | CC1(C)Cc2cc(NC(=O)c3cnn4cccnc34)c(OCC(F)(F)F)cc2O1 [Example 70, N-[2,2-Dimethyl-6-(2,2,2-trifluoroethoxy)-3H-benzofuran-5-yl]pyrazolo[1,5-a]pyrimidine-3-carboxamide] |
| 920 | C[C@]1(CO)Cc2cc(NC(=O)c3cnn4cccnc34)c(C(F)(F)F)cc2O1 [Example 71, N-[(2R)-2-(Hydroxymethyl)-2-methyl-6-(trifluoromethyl)-3H-benzofuran-5-yl]pyrazolo[1,5-a]pyrimidine-3-carboxamide] |
| 450 | C[C@@]1(CO)Cc2cc(NC(=O)c3cnn4cccnc34)c(C(F)(F)F)cc2O1 [Example 72, N-[(2S)-2-(hydroxymethyl)-2-methyl-6-(trifluoromethyl)-3H-benzofuran-5-yl]pyrazolo[1,5-a]pyrimidine-3-carboxamide] |
